Here are results for 41 compounds from patent US9487515B2, “Compounds modulating c-fms and/or c-kit activity and uses therefor” (Plexxikon Inc., priority 2006, dated 2016).

For this assay, the target named is c-kit (Homo sapiens, UniProt P10721). Nature of the assay: c-kit assays of Examples 40 and 41 (AlphaScreen kinase assays at 10 and 100 μM ATP, 33P-ATP filter assay, M-07e SCF-stimulated proliferation and phosphorylation). For orientation: In Alpha technology, singlet oxygen from a donor bead excites a nearby acceptor bead.
c-kit, sequence (P10721 with tags, fused parts or gaps): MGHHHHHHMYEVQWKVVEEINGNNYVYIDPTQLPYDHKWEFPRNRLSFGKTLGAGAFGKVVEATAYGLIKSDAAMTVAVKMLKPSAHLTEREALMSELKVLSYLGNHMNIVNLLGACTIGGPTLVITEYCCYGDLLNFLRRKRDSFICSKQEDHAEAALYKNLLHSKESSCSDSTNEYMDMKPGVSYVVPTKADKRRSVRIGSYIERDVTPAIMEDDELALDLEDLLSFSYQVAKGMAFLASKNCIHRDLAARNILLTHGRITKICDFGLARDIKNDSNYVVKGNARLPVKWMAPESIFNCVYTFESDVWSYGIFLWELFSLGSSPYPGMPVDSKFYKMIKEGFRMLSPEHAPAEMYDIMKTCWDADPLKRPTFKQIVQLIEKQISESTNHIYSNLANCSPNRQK

In general, IC50 refers to the concentration at which inhibition is half-maximal. Low values mean inhibition by little substance, high ones a need for much substance. As for `c1ccc(CNc2ccc(Cc3c[nH]c4ncccc34)cn2)cc1` [P-0001, benzyl-[5-(1H-pyrrolo[2,3-b]pyridin-3-ylmethyl)-pyridin-2-yl]-amine], the IC50 is under 1000 nM.
`O=C(c1ccc(NCc2ccccc2)nc1)c1c[nH]c2ncccc12` [P-0002, (6-Benzylamino-pyridin-3-yl)-(1H-pyrrolo[2,3-b]pyridin-3-yl)-methanone] registered a half-maximal inhibitory concentration (IC50) of under 1000 nM.
The compound `COc1ccc(CNc2ccc(Cc3c[nH]c4ncccc34)cn2)cc1` [P-0004, (4-methoxy-benzyl)-[5-(1H-pyrrolo[2,3-b]pyridin-3-ylmethyl)-pyridin-2-yl]-amine] showed a 50% inhibitory concentration (IC50) of under 1000 nM.
Regarding `c1csc(CNc2ccc(Cc3c[nH]c4ncccc34)cn2)c1` [P-0008, [5-(1H-pyrrolo[2,3-b]pyridin-3-ylmethyl)-pyridin-2-yl]-thiophen-2-ylmethyl-amine], the IC50 is under 1000 nM.
As for `COc1ccnc2[nH]cc(Cc3ccc(NCc4ccc(Cl)cc4)nc3)c12` [P-0010, [5-(4-Methoxy-1H-pyrrolo[2,3-b]pyridin-3-ylmethyl)-pyridin-2-yl]-(4-chloro-benzyl)-amine], the figure is under 1000 nM; as for `COc1ccnc2[nH]cc(Cc3ccc(NCc4ccc(C(F)(F)F)cc4)nc3)c12` [P-0011, [5-(4-Methoxy-1H-pyrrolo[2,3-b]pyridin-3-ylmethyl)-pyridin-2-yl]-(4-trifluoromethyl-benzyl)-amine], under 1000 nM; as for `Cc1nc(NCc2ccc(C(F)(F)F)cc2)ccc1Cc1c[nH]c2ncccc12` [P-0013, [6-Methyl-5-(1H-pyrrolo[2,3-b]pyridin-3-ylmethyl)-pyridin-2-yl]-(4-trifluoromethyl-benzyl)-amine], under 1000 nM.
For `Cc1nc(NCc2ccc(Cl)cc2)ccc1Cc1c[nH]c2ncccc12` [P-0014, (4-Chloro-benzyl)-[6-methyl-5-(1H-pyrrolo[2,3-b]pyridin-3-ylmethyl)-pyridin-2-yl]-amine], the IC50 is under 1000 nM.
`O=C(c1ccc(NCc2ccc(F)cc2)nc1)c1c[nH]c2ncccc12` [P-0015, [6-(4-Fluoro-benzylamino)-pyridin-3-yl]-(1H-pyrrolo[2,3-b]pyridin-3-yl)-methanone] came in with an IC50 of under 1000 nM.
As for `O=C(c1ccc(NCc2ccc(C(F)(F)F)cc2)nc1)c1c[nH]c2ncccc12` [P-0017, (1H-Pyrrolo[2,3-b]pyridin-3-yl)-[6-(4-trifluoromethyl-benzylamino)-pyridin-3-yl]-methanone], the figure is under 1000 nM.
Turning to `O=C(c1ccc(NCc2cccs2)nc1)c1c[nH]c2ncccc12` [P-0018, (1H-Pyrrolo[2,3-b]pyridin-3-yl)-{6-[(thiophen-2-ylmethyl)-amino]-pyridin-3-yl}-methanone], the IC50 was under 1000 nM.
As to `COc1ccc(Cc2c[nH]c3nccc(-c4ccsc4)c23)cn1` [P-0022, 3-(6-Methoxy-pyridin-3-ylmethyl)-4-thiophen-3-yl-1H-pyrrolo[2,3-b]pyridine], the IC50 was under 1000 nM.
Consider `O=C(c1ccc(Nc2cccc(O)c2)nc1)c1c[nH]c2ncccc12` [P-0027, [6-(3-Hydroxy-phenylamino)-pyridin-3-yl]-(1H-pyrrolo[2,3-b]pyridin-3-yl)-methanone], for which the IC50 is under 1000 nM.
In the case of `Clc1ccc(CNc2ccc(Cc3c[nH]c4ncc(Br)cc34)cn2)cc1` [P-0038, [5-(5-Bromo-1H-pyrrolo[2,3-b]pyridin-3-ylmethyl)-pyridin-2-yl]-(4-chloro-benzyl)-amine] it was under 1000 nM; in that of `Clc1ccc(CNc2ccc(Cc3c[nH]c4ncccc34)nn2)cc1` [P-0092, (4-Chloro-benzyl)-[6-(1H-pyrrolo[2,3-b]pyridin-3-ylmethyl)-pyridazin-3-yl]-amine], under 1000 nM; in that of `c1cnc2[nH]cc(Cc3ccc(NCc4ccc(CN5CCOCC5)cc4)nc3)c2c1` [P-0093, (4-Morpholin-4-ylmethyl-benzyl)-[5-(1H-pyrrolo[2,3-b]pyridin-3-ylmethyl)-pyridin-2-yl]-amine], under 1000 nM.
As for `c1cncc(CNc2ccc(Cc3c[nH]c4ncccc34)cn2)c1` [P-0094, Pyridin-3-ylmethyl-[5-(1H-pyrrolo[2,3-b]pyridin-3-ylmethyl)-pyridin-2-yl]-amine], the figure is under 1000 nM; as for `Cc1cc(CNc2ccc(Cc3c[nH]c4ncccc34)cn2)no1` [P-0095, (5-Methyl-isoxazol-3-ylmethyl)-[5-(1H-pyrrolo[2,3-b]pyridin-3-ylmethyl)-pyridin-2-yl]-amine], under 1000 nM; as for `c1cnc2[nH]cc(Cc3ccc(NCCN4CCCC4)nc3)c2c1` [P-0096, (2-Pyrrolidin-1-yl-ethyl)-[5-(1H-pyrrolo[2,3-b]pyridin-3-ylmethyl)-pyridin-2-yl]-amine], under 1000 nM.
`CC(Nc1ccc(Cc2c[nH]c3ncccc23)cn1)c1ccc(S(C)(=O)=O)cc1` (centres unmarked) [P-0097, [1-(4-Methanesulfonyl-phenyl)-ethyl]-[5-(1H-pyrrolo[2,3-b]pyridin-3-ylmethyl)-pyridin-2-yl]-amine] came in with an IC50 of under 1000 nM.
In the case of `COCCNc1ccc(Cc2c[nH]c3ncccc23)cn1` [P-0098, (2-Methoxy-ethyl)-[5-(1H-pyrrolo[2,3-b]pyridin-3-ylmethyl)-pyridin-2-yl]-amine] it was under 1000 nM; in that of `c1cnc2[nH]cc(Cc3ccc(NCCN4CCOCC4)nc3)c2c1` [P-0099, (2-Morpholin-4-yl-ethyl)-[5-(1H-pyrrolo[2,3-b]pyridin-3-ylmethyl)-pyridin-2-yl]-amine], under 1000 nM.
`O=C(Nc1ccc(Cc2c[nH]c3ncccc23)cn1)c1ccc(Cl)c(Cl)c1` [P-0100, 3,4-Dichloro-N-[5-(1H-pyrrolo[2,3-b]pyridin-3-ylmethyl)-pyridin-2-yl]-benzamide] displayed an IC50 of under 1000 nM.
`O=C(Nc1ccc(Cc2c[nH]c3ncccc23)cn1)c1ccc(F)cc1Cl` [P-0101, 2-Chloro-4-fluoro-N-[5-(1H-pyrrolo[2,3-b]pyridin-3-ylmethyl)-pyridin-2-yl]-benzamide] yielded an IC50 of under 1000 nM.
`Cc1cc(C(=O)Nc2ccc(Cc3c[nH]c4ncccc34)cn2)n(C)n1` [P-0102, 2,5-Dimethyl-2H-pyrazole-3-carboxylic acid [5-(1H-pyrrolo[2,3-b]pyridin-3-ylmethyl)-pyridin-2-yl]-amide] gave an IC50 of under 1000 nM.
`O=C(Nc1ccc(Cc2c[nH]c3ncccc23)cn1)c1cccs1` [P-0103, Thiophene-2-carboxylic acid [5-(1H-pyrrolo[2,3-b]pyridin-3-ylmethyl)-pyridin-2-yl]-amide] returned an IC50 of under 1000 nM.
`COc1cc(C(=O)Nc2ccc(Cc3c[nH]c4ncccc34)cn2)ccn1` [P-0104, 2-Methoxy-N-[5-(1H-pyrrolo[2,3-b]pyridin-3-ylmethyl)-pyridin-2-yl]-isonicotinamide]: the IC50 is under 1000 nM.
With `O=C(Nc1ccc(Cc2c[nH]c3ncccc23)cn1)c1ccncc1` [P-0105, N-[5-(1H-Pyrrolo[2,3-b]pyridin-3-ylmethyl)-pyridin-2-yl]-isonicotinamide], the IC50 was under 1000 nM.
As to `O=C(Nc1ccc(Cc2c[nH]c3ncccc23)cn1)c1ccccn1` [P-0107, Pyridine-2-carboxylic acid [5-(1H-pyrrolo[2,3-b]pyridin-3-ylmethyl)-pyridin-2-yl]-amide], the IC50 was under 1000 nM.
`Cc1ccc(C(=O)Nc2ccc(Cc3c[nH]c4ncccc34)cn2)cn1` [P-0108, 6-Methyl-N-[5-(1H-pyrrolo[2,3-b]pyridin-3-ylmethyl)-pyridin-2-yl]-nicotinamide] registered an IC50 of under 1000 nM.
Regarding `Cc1cc(C(=O)Nc2ccc(Cc3c[nH]c4ncccc34)cn2)ccc1F` [P-0109, 4-Fluoro-3-methyl-N-[5-(1H-pyrrolo[2,3-b]pyridin-3-ylmethyl)-pyridin-2-yl]-benzamide], the IC50 is under 1000 nM.
The compound `O=C(Nc1ccc(Cc2c[nH]c3ncccc23)cn1)c1cccc(Cl)c1` [P-0111, 3-chloro-N-[5-(1H-pyrrolo[2,3-b]pyridin-3-ylmethyl)-pyridin-2-yl]-benzamide] had an IC50 of under 1000 nM.
Take `O=C(Nc1ccc(Cc2c[nH]c3ncccc23)cn1)c1ccc(F)c(C(F)(F)F)c1` [P-0112, 4-Fluoro-N-[5-(1H-pyrrolo[2,3-b]pyridin-3-ylmethyl)-pyridin-2-yl]-3-trifluoromethyl-benzamide]: the IC50 is under 1000 nM.
In turn, `O=C(Nc1ccc(Cc2c[nH]c3ncccc23)cn1)c1cccc(OC(F)(F)F)c1` [P-0113, N-[5-(1H-Pyrrolo[2,3-b]pyridin-3-ylmethyl)-pyridin-2-yl]-3-trifluoromethoxy-benzamide] showed an IC50 of under 1000 nM.
Turning to `O=C(Nc1ccc(Cc2c[nH]c3ncccc23)cn1)c1cccc(C(F)(F)F)c1` [P-0114, N-[5-(1H-Pyrrolo[2,3-b]pyridin-3-ylmethyl)-pyridin-2-yl]-3-trifluoromethyl-benzamide], the IC50 is under 1000 nM.
The compound `O=C(Nc1ccc(Cc2c[nH]c3ncccc23)cn1)c1ccc(F)c(Cl)c1` [P-0115, 3-Chloro-4-fluoro-N-[5-(1H-pyrrolo[2,3-b]pyridin-3-ylmethyl)-pyridin-2-yl]-benzamide] yielded an IC50 of under 1000 nM.
In the case of `O=C(Nc1ccc(Cc2c[nH]c3ncccc23)cn1)c1ccc(F)c(F)c1` [P-0116, 3,4-Difluoro-N-[5-(1H-pyrrolo[2,3-b]pyridin-3-ylmethyl)-pyridin-2-yl]-benzamide] it was under 1000 nM.
`Cc1ccc(F)cc1C(=O)Nc1ccc(Cc2c[nH]c3ncccc23)cn1` [P-0118, 5-Fluoro-2-methyl-N-[5-(1H-pyrrolo[2,3-b]pyridin-3-ylmethyl)-pyridin-2-yl]-benzamide] showed an IC50 of under 1000 nM.
As for `COc1cccc(C(=O)Nc2ccc(Cc3c[nH]c4ncccc34)cn2)c1` [P-0120, 3-Methoxy-N-[5-(1H-pyrrolo[2,3-b]pyridin-3-ylmethyl)-pyridin-2-yl]-benzamide], the IC50 was under 1000 nM.
The compound `O=C(Nc1ccc(Cc2c[nH]c3ncccc23)cn1)c1cccc(F)c1` [P-0121, 3-Fluoro-N-[5-(1H-pyrrolo[2,3-b]pyridin-3-ylmethyl)-pyridin-2-yl]-benzamide] showed an IC50 of under 1000 nM.
In the case of `Cc1cccc(C(=O)Nc2ccc(Cc3c[nH]c4ncccc34)cn2)c1` [P-0122, 3-Methyl-N-[5-(1H-pyrrolo[2,3-b]pyridin-3-ylmethyl)-pyridin-2-yl]-benzamide], the IC50 is under 1000 nM.
